Results published in patent US7795380B2, “Compositions and methods for nucleic acid delivery” (University of Iowa Research Foundation, priority 2006, dated 2010).
Where no end group is shown, it is not given here. photolabel = not defined here

Tests used:
erythrocytes = details: cited from earlier work
[1] = stability of the linker peptide by LC/MS; assay type: physicochemical
Procedure: To test the hypothesis that the new linker would be stable under normal operating conditions, the linker was first synthesized via solid phase peptide synthesis and then purified by preparative reverse phase HPLC. Characterization and purity of the linker was accomplished through analytical reverse phase HPLC and LC/MS (FIG. 11). The stability of the linker peptide was determined by LC/MS after exposure to a variety of conditions including incubations at room temperature, 37° C., 50° C., and exposure to sunlight.
However, this is not surprising since PL-L1 peptide is a photoactive compound and should photoactivate if provided the proper stimulus.

H5WYG: cationic peptide from HA-2 with His in place of Glu (GGLFHAIAAHFIHGGWHGLIHGWWG)
hemolysis activity (erythrocytes; pH 6.4): full hemolytic activity

JTS-1: amphipathic acidic fusogenic peptide developed by Gottschalk and coworkers (GGLFEALLELLESLWELLLEA)
higher hemolysis activity than INF-7 (erythrocytes; pH of 5): 8 fold

PL-Tyr-Lys-Lys-Lys (photolabel-YKKK; reading uncertain; also: printed as PL-Tyr-Lys-Lys-Lys) [PL-L1]
stability by LC/MS ([1]; exposure to sunlight): moderate degradation
stability by LC/MS ([1]; room temperature, 37° C., 50° C.): stable
